Laboratory results as given in PubChem BioAssay AID328 (DTP/NCI, 2004).
Where “and” joins values, the source holds several entries; their conditions need not be identical. Identical values can stand only once. Inconclusive results and toxic doses are left out.

Test system: BDF1 mice, P388 leukemia ip, median survival T/C
Experiment: NCI In Vivo Anticancer Drug Screen. Data for tumor model P388 Leukemia (intraperitoneal) in B6D2F1 (BDF1) mice
Settings: endpoint: median survival time, higher = longer survival
Procedure, shortened: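 Each value expresses how treatment altered survival: treated-mouse outcome over vehicle-mouse outcome, both groups bearing the transplanted tumour.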

[1] = dose: 50.0 mg/kg/injection, schedule: Q01DX009 (ip), vehicle: saline
[2] = dose: 100.0 mg/kg/injection, schedule: Q01DX009 (ip), vehicle: saline
[3] = dose: 200.0 mg/kg/injection, schedule: Q01DX009 (ip), vehicle: saline
[4] = dose: 400.0 mg/kg/injection, schedule: Q01DX009 (ip), vehicle: saline
[5] = dose: 100.0 mg/kg/injection, schedule: Q01DX009 (ip), vehicle: saline with Tween-80
[6] = dose: 100.0 mg/kg/injection, schedule: Q04DX003 (ip), vehicle: saline with Tween-80
[7] = dose: 200.0 mg/kg/injection, schedule: Q01DX009 (ip), vehicle: saline with Tween-80
[8] = dose: 200.0 mg/kg/injection, schedule: Q04DX003 (ip), vehicle: saline with Tween-80
[9] = dose: 400.0 mg/kg/injection, schedule: Q04DX003 (ip), vehicle: saline with Tween-80
[10] = dose: 50.0 mg/kg/injection, schedule: Q01DX009 (ip), vehicle: saline with Tween-80
[11] = dose: 25.0 mg/kg/injection, schedule: Q04DX003 (ip), vehicle: saline
[12] = dose: 50.0 mg/kg/injection, schedule: Q04DX003 (ip), vehicle: saline
[13] = dose: 25.0 mg/kg/injection, schedule: Q01DX009 (ip), vehicle: saline

`O=C(O)CC(NC(=O)CP(=O)(O)O)C(=O)O` (stereo unspecified) was tested, and the T/C [1] was 117 % of control, the T/C [2] was 118 % of control and the T/C (dose: 100.0 mg/kg/injection, schedule: Q01DX009 (ip), vehicle: water) was 100 % of control. The T/C (dose: 180.0 mg/kg/injection, schedule: Q04DX003 (ip), vehicle: saline) was 118 % of control, the T/C [3] was 157 % of control and the T/C (dose: 200.0 mg/kg/injection, schedule: Q01DX009 (ip), vehicle: water) was 109 % of control. The T/C (dose: 300.0 mg/kg/injection, schedule: Q01DX009 (ip), vehicle: saline) was 109 % of control, the T/C (dose: 300.0 mg/kg/injection, schedule: Q01DX009 (ip), vehicle: water) was 106 % of control and the T/C (dose: 300.0 mg/kg/injection, schedule: Q04DX003 (ip), vehicle: saline) was 109 % of control. For the same compound, the T/C [4] was 96 % of control, the T/C (dose: 500.0 mg/kg/injection, schedule: Q04DX003 (ip), vehicle: saline) was 122 % of control and the T/C (dose: 600.0 mg/kg/injection, schedule: Q04DX003 (ip), vehicle: saline) was 118 % of control. The T/C (dose: 750.0 mg/kg/injection, schedule: Q04DX003 (ip), vehicle: saline) was 163 % of control, the T/C (dose: 833.0 mg/kg/injection, schedule: Q04DX003 (ip), vehicle: saline) was 100 % of control and the T/C (dose: 1000.0 mg/kg/injection, schedule: Q04DX003 (ip), vehicle: saline) was 85 % of control. The T/C (dose: 1500.0 mg/kg/injection, schedule: Q04DX003 (ip), vehicle: saline) was 64 % of control.
For `COC(=O)CC(C)Cc1ccc(OC)c(OC)c1` (stereo unspecified), the T/C [5] was 104 % of control, the T/C [6] was 95 % of control and the T/C [7] was 112 % of control. For the same compound, the T/C [8] was 109 % of control and the T/C [9] was 109 % of control.
For `C[CH2][Pb]([CH2]C)([CH2]C)[O]C(=O)COC`, the T/C (dose: 0.78 mg/kg/injection, schedule: Q01DX009 (ip), vehicle: Klucel (hydroxypropylcellulose) (HPC)) was 115 % of control, the T/C (dose: 1.56 mg/kg/injection, schedule: Q01DX009 (ip), vehicle: Klucel (hydroxypropylcellulose) (HPC)) was 98 % of control and the T/C (dose: 3.13 mg/kg/injection, schedule: Q01DX009 (ip), vehicle: Klucel (hydroxypropylcellulose) (HPC)) was 121 % of control.
With `O=C(Nc1ccccc1C(=O)O)c1cc([N+](=O)[O-])cc([N+](=O)[O-])c1` the T/C [10] was 117 % of control.
In the case of `Cc1nc(N)c2nc(SCc3ccc(Cl)cc3)c(N)nc2n1`, the T/C [8] is reported as 86 % of control and the T/C [9] is reported as 97 % of control.
For `CC1(C)N=C(N)N=C(N)N1c1ccc(F)cc1`, the T/C (dose: 50.0 mg/kg/injection, schedule: Q01DX005 (ip), vehicle: Klucel (hydroxypropylcellulose) (HPC)) was 117 % of control.
With `CCC(C)(C)c1ccc(OCCOS(=O)(=O)c2ccc(C)cc2)cc1` the T/C (dose: 12.5 mg/kg/injection, schedule: Q04DX003 (ip), vehicle: saline) was 95 % of control, the T/C [11] was 100 % of control and the T/C [12] was 91 % of control.
With `NC(N)=Nc1ccc(S(=O)(=O)O)cc1` the T/C (dose: 12.5 mg/kg/injection, schedule: Q01DX009 (ip), vehicle: saline) was 108 % of control, the T/C [13] was 108 % of control and the T/C [1] was 91 % of control. For the same compound, the T/C [2] was 106 % of control.
In the case of `CC(C)(Br)C(=O)c1ccc([N+](=O)[O-])o1`, the T/C (dose: 0.78 mg/kg/injection, schedule: Q01DX009 (ip), vehicle: water) is reported as 95 % of control, the T/C (dose: 1.56 mg/kg/injection, schedule: Q01DX009 (ip), vehicle: water) is reported as 89 % of control and the T/C (dose: 3.12 mg/kg/injection, schedule: Q01DX009 (ip), vehicle: saline) is reported as 116 % of control. For the same compound, the T/C (dose: 3.12 mg/kg/injection, schedule: Q01DX009 (ip), vehicle: water) was 87 % of control, the T/C (dose: 6.25 mg/kg/injection, schedule: Q01DX009 (ip), vehicle: saline) was 123 % of control and the T/C (dose: 6.25 mg/kg/injection, schedule: Q01DX009 (ip), vehicle: water) was 105 % of control. For the same compound, the T/C (dose: 12.5 mg/kg/injection, schedule: Q01DX009 (ip), vehicle: saline with Tween-80) was 95 % of control, the T/C (dose: 12.5 mg/kg/injection, schedule: Q01DX009 (ip), vehicle: water) was 104 % of control and the T/C (dose: 25.0 mg/kg/injection, schedule: Q01DX009 (ip), vehicle: saline with Tween-80) was 100 % of control. The T/C [13] was 116 % of control, the T/C (dose: 25.0 mg/kg/injection, schedule: Q04DX003 (ip), vehicle: saline with Tween-80) was 107 % of control and the T/C [10] was 95 % of control. The T/C (dose: 50.0 mg/kg/injection, schedule: Q04DX003 (ip), vehicle: saline with Tween-80) was 109 % of control, the T/C [5] was 87 % of control and the T/C [6] was 100 % of control.
`C1CNCOC1` was tested, and the T/C [11] was 105 % of control and the T/C [12] was 119 % of control.
`COc1cccc(N2C(=O)CSC2=S)c1` was tested, and the T/C [5] was 91 % of control and the T/C [7] was 100 % of control.
For `CCN(C(=O)C(F)(F)F)C1(c2ccc(Cl)cc2)CCCCC1SSSC1CCCCC1(c1ccc(Cl)cc1)N(CC)C(=O)C(F)(F)F` (stereo unspecified), the T/C [6] was 100 % of control, the T/C [8] was 100 % of control and the T/C [9] was 104 % of control.
`c1ccc(COc2ccccn2)cc1` was tested, and the T/C (dose: 25.0 mg/kg/injection, schedule: Q04DX003 (ip), vehicle: Klucel (hydroxypropylcellulose) (HPC)) was 90 % of control, the T/C (dose: 50.0 mg/kg/injection, schedule: Q04DX003 (ip), vehicle: Klucel (hydroxypropylcellulose) (HPC)) was 95 % of control and the T/C (dose: 100.0 mg/kg/injection, schedule: Q04DX003 (ip), vehicle: Klucel (hydroxypropylcellulose) (HPC)) was 90 % of control.
With `COC(=O)/C(C=Nc1ccccc1)=C(/C)O` the T/C (dose: 50.0 mg/kg/injection, schedule: Q01DX009 (ip), vehicle: Klucel (hydroxypropylcellulose) (HPC)) was 112 % of control, the T/C (dose: 100.0 mg/kg/injection, schedule: Q01DX009 (ip), vehicle: Klucel (hydroxypropylcellulose) (HPC)) was 103 % of control and the T/C (dose: 200.0 mg/kg/injection, schedule: Q01DX009 (ip), vehicle: Klucel (hydroxypropylcellulose) (HPC)) was 108 % of control.
`Cc1c2oc3c(C)c([N+](=O)[O-])cc(C(=O)NC4C(=O)NC(C(C)C)C(=O)N5CCCC5C(=O)N(C)CC(=O)N(C)C(C(C)C)C(=O)OC4C)c3nc-2c(C(=O)NC2C(=O)NC(C(C)C)C(=O)N3CCCC3C(=O)N(C)CC(=O)N(C)C(C(C)C)C(=O)OC2C)c(N)c1=O` (stereo unspecified) was tested, and the T/C (dose: 150.0 micrograms/kg/injection, schedule: Q01DX009 (ip), vehicle: saline + alcohol) was 153 % of control, the T/C (dose: 450.0 micrograms/kg/injection, schedule: Q04DX003 (ip), vehicle: saline + alcohol) was 110 % of control and the T/C (dose: 600.0 micrograms/kg/injection, schedule: Q04DX003 (ip), vehicle: saline + alcohol) was 108 % of control.
In the case of `C=CN1CCCC1=O`, the T/C (dose: 100.0 mg/kg/injection, schedule: Q01DX001 (ip), vehicle: saline) is reported as 100 % of control, the T/C [2] is reported as 90 % of control and the T/C (dose: 200.0 mg/kg/injection, schedule: Q01DX001 (ip), vehicle: saline) is reported as 95 % of control. The T/C [3] was 118 % of control, the T/C (dose: 400.0 mg/kg/injection, schedule: Q01DX001 (ip), vehicle: saline) was 100 % of control and the T/C [4] was 122 % of control.
`CC#CCOCC1CN(C)C(=O)O1` (stereo unspecified) was tested, and the T/C [13] was 95 % of control, the T/C [1] was 100 % of control and the T/C [12] was 100 % of control. The T/C [2] was 109 % of control, the T/C [3] was 95 % of control and the T/C (dose: 200.0 mg/kg/injection, schedule: Q04DX003 (ip), vehicle: saline) was 91 % of control. The T/C (dose: 400.0 mg/kg/injection, schedule: Q04DX003 (ip), vehicle: saline) was 87 % of control.
With `COc1cc2c3cc1Oc1c(O)c(OC)cc4c1C(Cc1cc5c(c(c1)Oc1ccc(cc1)CC3N(C)CC2)OCO5)N(C)CC4` (stereo unspecified) the T/C (dose: 1.25 mg/kg/injection, schedule: Q01DX010 (ip), vehicle: saline) was 90 % of control, the T/C (dose: 2.5 mg/kg/injection, schedule: Q01DX010 (ip), vehicle: saline) was 95 % of control and the T/C (dose: 5.0 mg/kg/injection, schedule: Q01DX010 (ip), vehicle: saline) was 90 % of control. For the same compound, the T/C (dose: 10.0 mg/kg/injection, schedule: Q01DX010 (ip), vehicle: saline) was 86 % of control.
`C[C@]12CC[C@@H]3c4ccc(OC(=O)Cc5ccc(N(CCCl)CCCl)cc5)cc4CC[C@H]3[C@@H]1CC[C@@H]2OC(=O)Cc1ccc(N(CCCl)CCCl)cc1` was tested, and the T/C (dose: 64.0 mg/kg/injection, schedule: Q01DX009 (ip), vehicle: Klucel (hydroxypropylcellulose) (HPC)) was 95 % of control and 105 % of control, the T/C [5] was 118 % of control and the T/C (dose: 128.0 mg/kg/injection, schedule: Q01DX009 (ip), vehicle: Klucel (hydroxypropylcellulose) (HPC)) was 98 % of control and 123 % of control. For the same compound, the T/C (dose: 256.0 mg/kg/injection, schedule: Q01DX009 (ip), vehicle: Klucel (hydroxypropylcellulose) (HPC)) was 111 % of control, the T/C (dose: 264.0 mg/kg/injection, schedule: Q04DX003 (ip), vehicle: saline with Tween-80) was 108 % of control and the T/C (dose: 400.0 mg/kg/injection, schedule: Q01DX009 (ip), vehicle: saline with Tween-80) was 200 % of control. The T/C [9] was 112 % of control and the T/C (dose: 512.0 mg/kg/injection, schedule: Q01DX009 (ip), vehicle: Klucel (hydroxypropylcellulose) (HPC)) was 195 % of control.
